In ChEMBL document CHEMBL1201862, “PubChem BioAssay data set” (2004):
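Interpolation was linear, between the two tested concentrations surrounding the appropriate level; five concentrations were tested over 48 hours in 96-well plates. GI50: concentration for 50% inhibition of growth.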 Activity calls are given as the source filed them. Cut-off read from the data, not from the text of the source: active = GI50 up to about 1.1 µM and inactive = higher.

Experiments:
Test in all cases: NCI anticancer screen, dose series, 48 h
RXF 393 = test system: RXF 393
HOP-92 = test system: HOP-92
K562 = test system: K562
UACC-257 = test system: UACC-257
SR = test system: SR
HL-60 = test system: HL-60
HOP-62 = test system: HOP-62
OVCAR-8 = test system: OVCAR-8
OVCAR-3 = test system: OVCAR-3
UACC-62 = test system: UACC-62
DLD-1 = test system: DLD-1
NCI-H226 = test system: NCI-H226
LXFL 529 = test system: LXFL 529
HCT-15 = test system: HCT-15
UO-31 = test system: UO-31
SF-268 = test system: SF-268
KM-20L2 = test system: KM-20L2
ACHN = test system: ACHN
786-0 = test system: 786-0
DU-145 = test system: DU-145

| Structure (SMILES) | GI50 (RXF 393) | GI50 (HOP-92) | GI50 (K562) | GI50 (UACC-257) | GI50 (SR) | GI50 (HL-60) | GI50 (HOP-62) | GI50 (OVCAR-8) | GI50 (OVCAR-3) | GI50 (UACC-62) | GI50 (DLD-1) | GI50 (NCI-H226) | GI50 (LXFL 529) | GI50 (HCT-15) | GI50 (UO-31) | GI50 (SF-268) | GI50 (KM-20L2) | GI50 (ACHN) | GI50 (786-0) | GI50 (DU-145) |
| --- | --- | --- | --- | --- | --- | --- | --- | --- | --- | --- | --- | --- | --- | --- | --- | --- | --- | --- | --- | --- |
| Cc1ccc(Oc2ccc(C)cc2[N+](=O)[O-])cc1 | 26.5 µM (inactive) | 28.6 µM (inactive) | 38.5 µM (inactive) | 62.5 µM (inactive) | 33.7 µM (inactive) | 26.4 µM (inactive) | > 100 µM (inactive) | > 100 µM (inactive) | 55.8 µM (inactive) | > 100 µM (inactive) | 77.4 µM (inactive) | 57.5 µM (inactive) | 43.6 µM (inactive) | 63.8 µM | 29.2 µM (inactive) | > 100 µM (inactive) | > 100 µM (inactive) | 69.2 µM (inactive) |  |  |
| c1c(N2CCOCC2)s[s+]c1N1CCOCC1 | > 100 µM (inactive) | > 100 µM (inactive) | > 100 µM (inactive) | > 100 µM (inactive) | > 100 µM (inactive) | > 100 µM (inactive) | > 100 µM (inactive) | > 100 µM (inactive) |  | > 100 µM (inactive) | > 100 µM (inactive) | 13.3 µM (inactive) | > 100 µM (inactive) | > 100 µM | > 100 µM (inactive) | > 100 µM (inactive) | > 100 µM (inactive) | > 100 µM (inactive) | > 100 µM (inactive) |  |
| COc1ccc(S(=O)(=O)c2ccccc2[N+](=O)[O-])cc1 | 55.6 µM (inactive) | > 100 µM (inactive) | > 100 µM (inactive) | 71.8 µM (inactive) | > 100 µM (inactive) | 55.6 µM (inactive) | > 100 µM (inactive) | > 100 µM (inactive) | 98.6 µM (inactive) | > 100 µM (inactive) | > 100 µM (inactive) | > 100 µM (inactive) | 92 µM (inactive) | > 100 µM | 78 µM (inactive) | > 100 µM (inactive) | > 100 µM (inactive) |  |  |  |
| COC(=O)[C@]1(C)CCCC2(C)C1CC[C@H]1C=C(C)[C@H]3CCC12C3 (stereo partly drawn) | 55.3 µM (inactive) | > 100 µM (inactive) | > 100 µM (inactive) | 37.5 µM (inactive) | > 100 µM (inactive) | 86.1 µM (inactive) | > 100 µM (inactive) | > 100 µM (inactive) | > 100 µM (inactive) | > 100 µM (inactive) | > 100 µM (inactive) | > 100 µM (inactive) | > 100 µM (inactive) | > 100 µM | > 100 µM (inactive) | > 100 µM (inactive) | > 100 µM (inactive) | > 100 µM (inactive) | > 100 µM (inactive) |  |
| CS(=O)(=O)OCCN(CCOS(C)(=O)=O)c1ccc(/C=N/c2ccc(-c3csc(COc4ccccc4)n3)cc2)cc1 | 0.461 µM (active) | 15.6 µM (inactive) | 5.02 µM (inactive) | 10.2 µM (inactive) | 0.222 µM (active) | 0.817 µM (active) | 1.32 µM (inactive) | 6.17 µM (inactive) | 1.24 µM (inactive) | 1.87 µM (inactive) | 13.1 µM (inactive) | 2.66 µM (inactive) | 12.1 µM (inactive) | 8.51 µM | 0.65 µM (active) | 2.49 µM (inactive) | 3.14 µM (inactive) | 0.407 µM (active) | 0.429 µM (active) | 1.64 µM (inactive) |
| CCOC(=O)Nc1ccc(S(=O)(=O)OC)cc1.CCOC(=O)Nc1ccc(S(=O)(=O)OC)cc1.NC(=O)NCCO | > 50 µM (inactive) | > 50 µM (inactive) | 16.1 µM (inactive) | 29.6 µM (inactive) | > 50 µM (inactive) | 16.7 µM (inactive) | 23.6 µM (inactive) | 42.3 µM (inactive) | > 50 µM (inactive) | > 50 µM (inactive) | 7.08 µM (inactive) | > 50 µM (inactive) | 29.4 µM (inactive) | 21.6 µM | > 50 µM (inactive) | > 50 µM (inactive) | > 50 µM (inactive) | > 50 µM (inactive) | 19.9 µM (inactive) |  |
| C/C=C1/C(=Cc2[nH]c(C=c3[nH]/c(=C/C4=NC(=O)C(CC)=C4C)c(C)c3CCC(=O)O)c(CCC(=O)O)c2C)NC(=O)C1C (stereo not drawn) | > 50 µM (inactive) | 0.0173 µM (active) | 2.21 µM (inactive) | 11 µM (inactive) | 4.37 µM (inactive) | 7.59 µM (inactive) | 2.33 µM (inactive) | 4.13 µM (inactive) | 27.5 µM (inactive) | 8 µM (inactive) | 2.58 µM (inactive) | 2.59 µM (inactive) | 2.06 µM (inactive) | 2.58 µM | 8.24 µM (inactive) | 7.89 µM (inactive) | 2.03 µM (inactive) | 13.7 µM (inactive) | 2.41 µM (inactive) |  |
| CC(=O)Nc1ccc(-c2nnc(SCC(=O)Nc3ccccc3)o2)cc1 | 89.9 µM (inactive) | > 100 µM (inactive) | > 100 µM (inactive) | 93.8 µM (inactive) | > 100 µM (inactive) | 89.1 µM (inactive) | > 100 µM (inactive) | > 100 µM (inactive) | > 100 µM (inactive) | 54.5 µM (inactive) | 59 µM (inactive) | 82.4 µM (inactive) | 34.6 µM (inactive) | 92 µM | 79.6 µM (inactive) | > 100 µM (inactive) | > 100 µM (inactive) | > 100 µM (inactive) | > 100 µM (inactive) |  |
| CC1(C)OC(C(N)=O)=C(C(N)=O)O1 | > 100 µM (inactive) | > 100 µM (inactive) | > 100 µM (inactive) | > 100 µM (inactive) | 6.53 µM (inactive) | > 100 µM (inactive) | > 100 µM (inactive) | > 100 µM (inactive) | > 100 µM (inactive) | > 100 µM (inactive) | > 100 µM (inactive) | > 100 µM (inactive) | > 100 µM (inactive) | > 100 µM | > 100 µM (inactive) | > 100 µM (inactive) | > 100 µM (inactive) | > 100 µM (inactive) | > 100 µM (inactive) |  |
